# Read-outs that look alike come from different tables or passages of the source.
# Tests used:
# [1] = test system: human umbilical vein endothelial cells; settings: cited from earlier work
# [2] = test system: Human umbilical vein endothelial cells (HUVECs); assay type: cell-based
# Method: Cell Culture. Human umbilical vein endothelial cells (HUVECs) were obtained from Caesarian section derived cords. HUVECs were cultured by standard methodology in 25 cm^2 T-flasks (Corning Inc., Corning, N.Y.) coated with 0.5% porcine skin gelatin (Sigma Chemical Co., St. Louis, Mo.). Medium 199 (Life Technologies, Gaithersburg, Md.), supplemented with 20% defined fetal bovine serum (FBS) (Hyclone, Logan, Utah), 16 U/ml heparin (Sigma), 50 μg/ml bovine hypothalamus derived endothelial mitogen (Biomedical Technologies, Stoughton, Mass.), 100 U/ml penicillin and 100 μg/ml streptomycin was used for the growth of HUVECs. […]
# Protection/Inhibition Assay. The number of metabolically active cells after exposure of endothelial cell cultures to test agents was assessed using a calorimetric method. […] The amount of formazan is measured at 490 nm absorbance and is directly proportional to the numbers of living cells in culture.
# (§1) Endothelial cells grown in the complete (supplemented) M199 medium were harvested in the log phase. […] The number and viability of the cells was determined using a hemocytometer and the trypan blue staining, respectively. […] The absorbance of each well at 490 nm was recorded using an ELISA plate reader. […]
# Endothelial cell cultures were prepared as described in Example 1. […] Endothelial cell viability was assessed using the MTS/PMS calorimetric assay described in Example 1.
# [3] = test system: Human umbilical vein endothelial cells (HUVECs); assay type: cell-based; remark: listed apart in the source
# Method: (§2) Cell Culture. Human umbilical vein endothelial cells (HUVECs) were obtained from Caesarian section derived cords. HUVECs were cultured by standard methodology in 25 cm^2 T-flasks (Corning Inc., Corning, N.Y.) coated with 0.5% porcine skin gelatin (Sigma Chemical Co., St. Louis, Mo.). Medium 199 (Life Technologies, Gaithersburg, Md.), supplemented with 20% defined fetal bovine serum (FBS) (Hyclone, Logan, Utah), 16 U/ml heparin (Sigma), 50 μg/ml bovine hypothalamus derived endothelial mitogen (Biomedical Technologies, Stoughton, Mass.), 100 U/ml penicillin and 100 μg/ml streptomycin was used for the growth of HUVECs. Endothelial cells were characterized by homogenous and typical cobblestone morphology, von Willebrand factor antigen positively, and the presence of Weibel-Palade bodies, as are known in the art.
# (§3) Protection/Inhibition Assay. The number of metabolically active cells after exposure of endothelial cell cultures to test agents was assessed using a calorimetric method. This assay utilizes solutions of a tetrazolium compound [3-(4,5-dimethylthiazol-2-yl)-5-(3-carboxymethoxyphenyl)-2-(4 Sulfophenyl)-2H-tetrazolium] (MTS) and an electron coupling reagent, phenazine methosulfate (PMS; available from Promega Corp., Madison, Wis.). See Denizot and Lang, J. Immunol. Methods 89:271 (1986); Promega Corporation Technical Bulletins 112, 152 and 169). […] The amount of formazan is measured at 490 nm absorbance and is directly proportional to the numbers of living cells in culture.
# as §1, with “reader. The LD50 and the effect of the various treatments on cell viability and chemosensitivity were determined by plotting the corrected absorbance at 490 nm versus the concentration of the additive (EPO, chemotherapeutic agent, or combinations thereof).” for “reader.”
# [4] = test system: bovine capillary endothelial cells; settings: cited from earlier work
# [5] = test system: Human umbilical vein endothelial cells (HUVECs); test: Protection/inhibition assay, EPO added two hours after cisplatin (MTS/PMS); assay type: cell-based
# Method: as §2
# as §3, with “Wis.).” for “Wis.). See Denizot and Lang, J. Immunol. Methods 89:271 (1986); Promega Corporation Technical Bulletins 112, 152 and 169).”
# as §1, with “reader. The LD50 and the effect of the various treatments on cell viability and chemosensitivity were determined by plotting the corrected absorbance at 490 nm versus the concentration of the additive (EPO, chemotherapeutic agent, or combinations thereof).” for “reader.”
# Endothelial cell cultures were prepared as described in Example 1. […] Endothelial cell viability was assessed using the MTS/PMS colorimetric assay described in Example 1.
# [6] = doses of up to 1,500 Units/kg for three to four weeks; cited from earlier work
substance,measurement,setting,value
erythropoietin [EPO],mitogenic and chemoattractant (migratory) effect,[1],exerts a mitogenic and chemoattractant (migratory) effect
same,reduction of cell growth compared to controls,[2]; 2.5 U/ml EPO two hours prior to cisplatin,48%
same,reduction of cell growth compared to controls,[2]; 5 U/ml EPO two hours prior to cisplatin,58%
same,effect on endothelial cell cultures vs cisplatin alone,[3]; 0.15 to 1.25 U/ml EPO simultaneously with 1 μg/ml cisplatin,protected from the damaging effects of cisplatin
same,number of viable cells greater than in control cultures treated with cisplatin only,[3]; 0.3 U/ml EPO simultaneously with 1 μg/ml cisplatin,approximately 30%
same,endothelial cell growth vs cisplatin alone,[3]; 5 to 20 U/ml EPO simultaneously with 1 μg/ml cisplatin,inhibited
same,mitogenic and chemoattractant (migratory) effect,[4],exerts a mitogenic and chemoattractant (migratory) effect
same,effect on endothelial cell cultures vs cisplatin alone,[5]; 0.15 to 5 U/ml EPO two hours following 1 μg/ml cisplatin,protected from the damaging effects of cisplatin
same,number of viable cells greater than that of controls,[5]; 1.25 U/ml EPO two hours after 1 μg/ml cisplatin,34%
same,cell viability vs controls (cisplatin only),[5]; 10 to 20 U/ml EPO two hours after 1 μg/ml cisplatin,reduced over that seen in controls
same,toxic effects due to EPO itself,[6],without toxic effects
